In patent publication US9037228B2, “Method and system for detecting electrophysiological changes in pre-cancerous and cancerous tissue” (Epi-Sci, LLC, priority 2002, dated 2015):
Where two headings read alike, the source gives them in different places.

Assays:
[1] = system: human prostatic epithelial cells; settings: cells grown in presence of DHT
Description: FIG. 13 represent measurements of cell membrane potential (ψ) in human prostatic epithelial cells under different growth conditions. A Voltage-sensitive FRET (fluorescent energy transfer) probe was used for potentiometric ratio measurements. It has two fluorescent components: CC2-DMPE (Coumarin) and DISBAC2(3) (Oxonol). The oxonol distributes itself on opposite sides of the cell membrane in a Nernstian manner according to the ψ. The voltage sensitive distribution of oxonol is transduced through a ratiometric fluorescence signal via the coumarin which is bound to the outside surface of the cell membrane thereby amplifying the fluorescence. Measurements were made using a fluorescence microscope and a digital imaging system. The ratio measurements are calibrated using Gramicidin D to depolarize the cell membrane and then varying the external K^+-concentration. The calibrated cell membrane potential in mV is depicted on the y-axis.
The filled bars indicates the ψ of exponentially growing prostatic epithelial cells before they reach confluence, whereas the open bars depict the ψ of the cells once they reach confluence and cell growth slows.

[2] = system: apical K+ channels of human colonic mucosa; settings: normal colon, 30 mM mucosal TEA after elevated serosal K+, 0.1 mM amiloride present
Method: The potassium permeability of the apical membrane of human colonic mucosa (P^Ka) was determined in surgical specimens of controls and grossly normal-appearing mucosa obtained 10-30 cm proximal to colorectal adenocarcinomas. The mucosa was mounted in Ussing chambers and the basolateral membrane resistance and voltage were nullified by elevating the K^+ in the serosal bathing solution. The apical sodium (Na^+) conductance was blocked with 0.1 mM amiloride. This protocol reduces the equivalent circuit model of the epithelium to an apical membrane conductance and electromotive force in parallel with the paracellular pathway as has been verified by microelectrode studies. […] The serosal bath was remained constant at 125 mM [K].

colonic mucosa = assay: TEP response of colonic mucosa to topically applied amiloride
Description: The measured TEP decreases in response to a topically applied amiloride (a sodium channel blocker) in normal colonic mucosa. This response is reduced by approximately 50% in pre-cancerous mucosa or by greater than 75% in cancerous mucosa. In addition, the loss in sodium conductance results in an increase of impedance of the surface epithelium. This ion transport alteration may be measured by determining the change in TEP as well as the basal impedance. In abnormal pre-cancerous or cancerous tissue, the TEP is lower, the response of the TEP to amiloride is less, and the increase in impedance (observed in normal colon in response to amiloride) is less in abnormal pre-cancerous or cancerous tissue. Similar pharmacological agents may be introduced that alter the effect of chloride or potassium ion transport, which affect abnormal pre-cancerous or cancerous tissue in a different manner than in normal colon tissue.

[3] = system: benign and malignant human breast epithelial cells; assay: Transepithelial potential (TEP) of breast epithelial monolayers in modified Ussing chambers, voltage clamp; type: cell-based
Method: It should be noted that the instantaneous response, illustrated in FIG. 10, is greater in malignant epithelia, whereas the chronic or sustained exposure to estradiol results in a lower increase in TEP (transepithelial electropotential) in malignant cells. Concurrent measurement of surface electropotential and impedance allow the more accurate diagnosis of cancer. […] The cells were grown as monolayers on Millipore filters and grew to confluence in 7 to 10 days. The epithelia were then mounted in modified Ussing chambers and the TEP was measured using a voltage clamp. Increasing doses of estradiol between 0 and 0.8 μM were added (x-axis). The transepithelial potential was measured after each addition and the TEP was measured (y-axis). The different dose response is apparent for benign and malignant epithelia. Malignant epithelia have a lower TEP but undergo an instantaneous increase in TEP of approximately 9 mV (becomes more electronegative and reaches a level of <6 mV) after exposure to only 0.1 μM estradiol and then depolarize to approximately −2 mV with increasing doses of estradiol up to about 0.5 μM.

breast tissue = assay: Electrophysiological (TEP) response of breast tissue to estradiol given into the duct or sublingually; type: in vivo; settings: into the duct or sublingual 17-β-estradiol (4 mg)
Method: In one method of present invention, estradiol is introduced directly into the duct or systematically following sublingual administration of 17-β-estradiol (4 mg). This agent produces a rapid response, which peaks at approximately 20 minutes. The electrophysiological response depends, in part, on the stage of the patient's menstrual cycle, as well as the condition of the breast tissue. Specifically, in normal breast tissue, a rise in TEP will occur during the follicular (or early) phase. In pre-cancerous or cancerous tissue, this response is abrogated.

[4] = system: human breast epithelial cells; assay: Cell membrane potential (ψ) in human breast epithelial cells, potentiometric fluorescent probe; type: cell-based
Method: Measurements were made using a potentiometric fluorescent probe, and ratiometric measurements, which are calibrated using valinomycin and K^+-gradients. ψs were measured in the presence (closed circles) and absence (open circles) of estradiol (the active metabolite of estrogen). Each symbol is the mean measurement. The upper error bar is the standard error of the mean, and the lower error bar is the 95% confidence level for the observations. The addition of estrogen to cultured breast epithelial cells results in an instantaneous increase in ψ (data not shown) as well as transepithelial potential see FIG. 10. Transepithelial potential (VT) of an epithelium is the sum of the apical (luminal) cell membrane potential (VA) and the basolateral (abluminal) cell membrane potential (VBL). Therefore VT=VA+VBL(changes in VA and VBL will therefore alter VT or transepithelial potential). […] Malignant and transformed cells have a ψ of between −31 and −35 mV in the absence of estradiol and approximately […] when estradiol is present in the culture medium.

[5] = malignant epithelia, after exposure to 0.1 μM estradiol

Which “effect on cell membrane potential ψ” value ([1]; exponential growth) does the source give for `C[C@]12CCC(=O)C[C@@H]1CC[C@@H]1[C@@H]2CC[C@]2(C)[C@@H](O)CC[C@@H]12` [DHT, dihydroxytestosterone] here?
The value was “slightly hyperpolarized”.

What about the “effect on cell membrane potential ψ” value ([1]; on reaching confluence) of the same compound?
Its value is “depolarize”.

`CC[N+](CC)(CC)CC` [TEA, tetraethyl ammonium] was tested. Which “effect on Isc” value [2] did it give?
Its value is “abrupt increase in Isc”.

How did the “reduction of the TEP response to amiloride” value (colonic mucosa; cancerous mucosa versus normal) turn out when `N=C(N)NC(=O)c1nc(Cl)c(N)nc1N` [amiloride] was run?
The value was “greater than 75%”.

And the “effect on measured TEP” value (colonic mucosa; normal colonic mucosa, topically applied)?
Its value is “decreases”.

What about the “reduction of the TEP response to amiloride” value (colonic mucosa; pre-cancerous mucosa versus normal) of the same compound?
The value was “approximately 50%”.

Which “estradiol dose at which TEP response peaks” value ([3]; benign epithelia, then remains persistently elevated) does the source give for `C[C@]12CC[C@@H]3c4ccc(O)cc4CC[C@H]3[C@@H]1CC[C@@H]2O` [estradiol, 17-β-estradiol] here?
Its value is roughly 0.3 µM.

What about the TEP level reached [3, 5] of the same compound?
The TEP level reached was less than 6 mV.

And the “instantaneous increase in TEP” value [3, 5]?
Its value is “approximately 9 mV”.

What about the TEP after depolarization ([3]; malignant epithelia, increasing doses of estradiol up to about 0.5 μM) of the same compound?
Its TEP after depolarization is “approximately −2 mV”.

And the “time of peak electrophysiological response” value (breast tissue)?
The value was “approximately 20 minutes”.

And the “cell membrane potential ψ” value ([4]; benign breast epithelial cells, estradiol added to the culture media (about −50 mV without))?
The value was roughly −70 mV.

What about the “cell membrane potential ψ” value ([4]; malignant and transformed cells, estradiol present in culture medium (−31 to −35 mV without)) of the same compound?
The value was “approximately 50 mV”.
